Assay results reported in US20070037194A1, “Allelic variation in the serotonin transporter (SERT) as an indicator of autism” (priority 2005, published 2007).

Legend:
SERT Ala56 = type: cell-based, human; settings: homozygous Ala56 cells preincubated for various times at 37° C. with 10 μM 8BrcGMP
Method: (§1) Homozygous Ala56 cells (10^6/tube) were preincubated for various times at 37° C. with 10 μM 8BrcGMP prior to [^3H]5-HT transport assays.
(§2) Functional Analysis of Gly56Ala Activity and Regulation. EBV-transformed lymphocyte cell lines from AGRE or Tufts/Vanderbilt autism families carrying either the Gly56 or 56Ala alleles were obtained from the NIMH Human Genetics Initiative Repository (www.nimhgenetics.org/) at Rutgers University. […] Lymphocytes were pelleted at 1500 rpm, 5 min and washed with KRH assay buffer. A total of 1×10^6 cells in triplicate were pre-warmed (37° C.) in a shaking water bath (10 min) in 12×75 polypropylene tubes in KRH buffer containing 100 μM pargyline and 100 μM ascorbic acid. After a 5-min incubation with [^3H]5-HT (20 nM) at 37° C., uptake assays were terminated by immersion on ice, and uptake in pelleted, 1% SDS-extracted cells quantitated by scintillation spectrometry. Specific 5-HT uptake was determined by subtracting the amount of [^3H]5-HT accumulated in the presence of 10 μM paroxetine (SmithKline Beecham). [^3H]L-glutamate transport assays were conducted as described for [^3H]5-HT except using 100 nM substrate and defining nonspecific uptake with parallel accumulation acquired at 4° C.

Gly56 SERT = type: cell-based, human; settings: coincubation with PKG inhibitor H8 at 10 μM; data not shown
Method: as §1, §2

Row | SMILES | sensitivity of SERT Ala56 [3H]5-HT transport to 8BrcGMP (SERT Ala56) | block of 8BrcGMP effects on Gly56 SERT (Gly56 SERT)
1 | Nc1nc2c(nc(Br)n2[C@@H]2O[C@@H]3COP(=O)(O)O[C@H]3[C@H]2O)c(=O)[nH]1 [8BrcGMP] | lacks sensitivity | 
2 | CNCCNS(=O)(=O)c1cccc2cnccc12 [H8] |  | completely blocked
